Results reported in patent US5089623A, “Certain imidate insecticides” (Imperial Chemical Industries Plc, priority 1990, dated 1992).

What was measured:
Assay type in all cases: in vivo
[1] = system: Housefly [Musca domestica]; test: Housefly insecticidal test (HF); settings: per 25 female houseflies, 48 hours
[2] = system: Tobacco Budworm [Heliothis virescens (Fabricius)] eggs; test: Tobacco budworm egg test (TBW-E); settings: percent in solution
[3] = system: Cabbage Looper [Trichoplusia ni (Hubner)]; test: Cabbage looper test (CL); settings: second-instar larvae, 3-5 days, percent in solution
[4] = system: Aster Leafhopper [Macrosteles fascifrens (Stal)]; test: Aster leafhopper test (LH); settings: adults/nymphs, 48 hours, percent in solution
[5] = system: Black Bean Aphid [Aphis fabae (Scop.)]; test: Black bean aphid test (BBA); settings: percent of test compound in sprayed solution, 48 hours
Protocol: The compounds in Tables 1 and 2 above were tested for insecticidal activity using the following testing procedures. LC50 values, based on the results of these tests and calculated according to dosage-mortality curves, are expressed in Table 3.
Black Bean Aphid [Aphis fabae (Scop.)]
Nasturtium plants (Tropaeolum sp.) approximately 5 cm tall, were transplanted into sandy loam soil in small cups and infested with 25-50 black bean aphids of mixed ages. Twenty-four hours later they were sprayed to the point of runoff with 50-50 acetone-water solutions of the test compounds. Treated plants were held in the greenhouse and mortality was recorded after 48 hours. Test concentrations ranged from 0.05% downward. The LC-50 value is expressed below in Table 3 under the heading "BBA" in terms of percent of the test compound in the sprayed solution.

[6] = system: Maize weevil [Sitophilus Zeamais (Motschulsky)]; test: Maize weevil test (MW); settings: adult weevils, treated corn seeds, 48 hours, percent in solution
Method in brief: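 Adult weevils (10) were placed with four corn seeds that had been dipped 2-3 s in compound dissolved in 50:50 acetone:water, then dried, and held at about 25° C. Mortality was scored at 48 h. LC50 was taken from dosage-mortality curves and expressed as percent compound in solution, from a 0.01% top concentration.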

[7] = system: Beet Armyworm (Spodoptera exigua); test: Beet armyworm test (BAW); settings: second-instar larvae, five days, percent in solution
Method in brief: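 Sugar beet leaves were dipped 2-3 s in compound diluted in 50-50 acetone-water, dried, then infested with five second-instar larvae in humid dishes. Mortality was scored after five days at concentrations from 0.1% downward. LC50 was taken from dosage-mortality curves as percent compound in solution.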

[8] = system: Rice water weevil [Lissorhoptrus oryzophilus (Kuschel)]; test: Rice water weevil test (RWW); settings: per weevil, topical, female adults, 48 hours
[9] = system: Tobacco Budworm [Heliothis virescens (Fabricius)]; test: Tobacco budworm contact test (TBW-C); settings: second-instar larvae, 5 days, percent in solution
Method in brief: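 Cotton cotyledons dipped 2–3 s in compound in 50:50 acetone–water, dried, then infested with 5 second-instar larvae and held 5 days at high humidity before scoring mortality.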

Row | Compound | LC50 HF [1] [µg] | LC50 TBW E [2] [%] | LC50 CL [3] [%] | LC50 LH [4] [%] | LC50 BBA [5] [%] | LC50 MW [6] [%] | LC50 BAW [7] [%] | LC50 RWW [8] [µg] | LC50 TBW C [9] [%]
1 | C=CCOc1cccc(COC(=Nc2ccc(F)c(Cl)c2)C(C)C)c1 [Compound 479] | 66 | > 0.1 | 0.013 | > 0.05 | > 0.05 | > 0.01 |  |  | 
2 | CC(C)C(=Nc1ccc(F)c(F)c1F)OCc1ccc(F)c(Oc2ccc(F)cc2)c1 [Compound 349] | 4.9 | > 0.1 | 0.00007 |  | > 0.05 | > 0.01 | > 0.1 | > 2.5 | 0.0004
3 | CC(C)C(=Nc1ccc(C(F)(F)F)cc1)OCc1cccc(Cc2ccccc2)c1 [Compound 535] | 41 |  | > 0.1 | > 0.05 | > 0.05 | > 0.01 |  |  | 
4 | CC(C)C(=Nc1ccc(F)c(Cl)c1)OCc1ccc(F)c(Oc2ccccc2)c1 [Compound 82] | 2.5 | 0.006 | 0.00018 | 0.0001 | 0.00021 |  | 0.0025 | 0.086 | 0.0008
5 | CC(C)C(=Nc1ccc(F)c(Cl)c1)OCc1cccc(Cc2ccccc2)c1 [Compound 537] | 20 |  | > 0.1 | > 0.05 | > 0.05 | > 0.01 |  |  | 
